The target of assay [1] is T1, HDAC10 (Homo sapiens, UniProt Q969S8).
T1 sequence (Q969S8 1-669): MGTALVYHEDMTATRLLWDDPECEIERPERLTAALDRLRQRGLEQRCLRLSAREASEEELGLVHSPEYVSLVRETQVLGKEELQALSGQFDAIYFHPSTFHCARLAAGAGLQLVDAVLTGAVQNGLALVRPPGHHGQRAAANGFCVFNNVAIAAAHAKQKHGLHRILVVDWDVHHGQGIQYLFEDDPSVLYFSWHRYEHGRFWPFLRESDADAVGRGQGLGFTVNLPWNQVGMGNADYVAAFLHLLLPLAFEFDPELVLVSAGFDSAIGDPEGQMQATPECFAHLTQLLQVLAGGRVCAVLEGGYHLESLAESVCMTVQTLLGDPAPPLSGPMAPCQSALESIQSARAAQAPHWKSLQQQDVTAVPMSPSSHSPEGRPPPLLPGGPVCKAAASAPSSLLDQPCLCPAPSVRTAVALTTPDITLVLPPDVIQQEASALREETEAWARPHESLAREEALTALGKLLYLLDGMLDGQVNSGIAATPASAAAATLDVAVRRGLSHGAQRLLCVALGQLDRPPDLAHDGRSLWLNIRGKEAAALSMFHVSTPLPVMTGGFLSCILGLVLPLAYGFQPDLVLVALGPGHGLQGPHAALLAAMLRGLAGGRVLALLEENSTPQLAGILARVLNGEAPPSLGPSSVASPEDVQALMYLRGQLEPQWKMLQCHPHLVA
Description: cellular BRET HDAC10 target engagement assay (stably transfected HeLa cells). Type of assay: cell-based. Also noted: host or cells: HeLa (stably transfected mono-clones). To be noted: for IC50: read-out: HDAC10 BRET pIC50 (converted). As to the method:
Production of mono‐clones stably expressing HDAC‐nanoBRET proteins: Plasmids expressing a fusion of HDAC10 with nanoluciferase were obtained from Promega (N2170). HeLa cells (0.75×10^6) were seeded in a 6 cm dish and after 24 h were transfected with a mix of 10 μg plasmid and 3 μL Fugene in 200 μL OptiMEM. In detail, cells were washed with pre‐warmed OptiMEM and subsequently overlaid with 2.3 mL of OptiMEM. After addition of 200 μL transfection mix, cells were incubated for 24 h at 37 °C. Cells were than trypsinized and 0.2×10^5 cells were seeded into both 10 cm and 15 cm dishes. Transformants were selected with 1 mg/mL G‐418 for 6 days with a media change after 3 days. Clones which formed colonies were picked by rinsing plates with 3 mL Trypsin/EDTA (Sigma T3924) followed by a 2 min incubation with 300 μL Trypsin/EDTA at 37 °C. Colonies were then loosened and aspirated with a 10 μL filter tip and transferred to 24‐well plates containing selection medium.
Culture of stable BRET cell lines: Stably transfected HeLa cells were cultivated under sterile conditions in polystyrene cell culture flasks (658170, Greiner) at 37 °C and 5 % CO2 in a humidified atmosphere. DMEM growth medium (D6049, Sigma) was supplemented with 10 % FCS (FBS‐12A, Capricorn Scientific), 1 % penicillin‐streptomycin (P4333, Sigma) and 1 mg/mL Geneticin (2039.3, Roth). At confluency, cells were passaged by removing old medium, DPBS (14190‐094, gibco) wash, trypsination (T4049, Sigma) and seeding in fresh growth medium.
BRET assay: The intracellular target engagement assay on HDAC10 was performed as described by the kit manufacturer in a 96‐well plate (3600, Corning) format with 1.9×10^4 cells per well and a tracer concentration of 0.3 μM. […] Drug dosing was performed from 10 mM and 1 mM DMSO stock solutions with a D300e Digital Dispenser (Tecan), DMSO concentrations were normalized to 0.5 % for all wells. Assay plates were incubated at 37 °C for 2 h followed by measurement of 450 nm and 650 nm luminescence (80 nm bandwidth) at room temperature with a CLARIOstar (BMG Labtech) plate reader 2 min after NanoLuc substrate addition.

The target in assay [2] is T1, HDAC10. Description: ligand displacement TR-FRET assay, HDAC10. Type of assay: binding. The arrangement: host or cells: Sf21 insect cells (baculovirus). To be noted: for IC50: ligand-displacement FRET assay, read-out: HDAC10 pIC50 (converted). As to the method: Expression and purification of TwinStrepII‐GST‐HDAC10: A synthetic gene encoding TwinStrepII‐GST‐HDAC10 (human) was ordered from GeneArt (Thermo Fischer Scientific) and subcloned into the pFastBac1 vector. The resulting construct was used for transposition in E. coli DH10EMBacY cells. The isolated bacmid DNA was then used to generate the recombinant baculovirus. For protein expression, 10 mL of baculovirus was added to 1 L of Sf21 cells at a density of 1×10^6 cells/mL. The infected Sf21 cells were grown for 72 h in Sf‐900 III SFM medium (Thermo Fischer Scientific) at 27 °C. Cells were harvested by centrifugation and re‐suspended in running buffer (100 mM Tris pH 8.0, 150 mM NaCl, 1 mM EDTA and 1 mM DTT) supplemented with 10 mM MgCl2, benzonase and cOmplete protease inhibitors (Merck). […] The clarified lysate was then loaded onto a 5 mL Strep‐Tactin Superflow high capacity column (IBA) pre‐equilibrated in running buffer. After sample loading and washing, the TwinStrepII‐GST‐HDAC10 protein was eluted in running buffer supplemented with 5 mM desthiobiotin (IBA). The elution fractions containing TwinStrepII‐GST‐HDAC10 were pooled and concentrated before being injected onto a HiLoad 16/600 Superdex 200 pg size exclusion chromatography column (GE Healthcare) pre‐equilibrated with 25 mM HEPES/NaCl pH 7.5, 150 mM NaCl, 0.5 mM EDTA, 1 mM DTT and 10 % glycerol. Samples were eluted from the size exclusion chromatography column in the same buffer, flash‐frozen in liquid N2 and stored at −80 °C.
The TR‐FRET measurements of the monohydroxamic acids in this manuscript were measured in the original assay format, which is described directly below this paragraph. The TR‐FRET measurements of the dihydroxamic acids in this manuscript were measured in the modified format, which is described two paragraphs below this one.
The concentrations of reagents in 10 μL final assay volume were 3 nM GST‐HDAC10, 30 nM “Tubastatin‐Alexa647‐Tracer” and 0.5 nM Eu‐anti‐GST. GST‐HDAC10 and LanthaScreen™ Eu‐anti‐GST Antibody were purchased from Life Technologies, and the Tubastatin‐Alexa647‐Tracer was synthesized in‐house as previously described.19 An 11‐fold 1 : 3‐serial dilution of compounds starting at 2 mM was prepared in 384 well pp‐plates (Greiner) from 10 mM stocks in DMSO and 1 μL was transferred to assay plates. Nine μL of the reagent‐mix was added and the plate was incubated for 1 h at RT before TR‐FRET was measured in an EnVision™ plate reader equipped with a TR‐FRET Laser module. […] Percent inhibition was calculated for each well from negative control wells containing 2 % DMSO and positive control wells containing 20 μM SAHA. The resulting dose‐response curves were fitted in ActivityBase (IDBS) using a four‐parameter logistic model and pIC50‐values were calculated.
After drug dosing to the premixed assay reagents in buffer, plates were shaken (800 rpm orbital shaker, 30 s), centrifuged (300 g, 1 min) and incubated at room temperature in the dark for 60 min. TR‐FRET was measured with a CLARIOstar (BMG Labtech) plate reader, equipped with TR‐FRET filters.
In general terms: Time-resolved FRET reads energy transfer from a long-lived donor to a nearby acceptor.

The mark [3] stands for this setting: cellular target engagement, one experiment in triplicate.

With `CN(C)Cc1nn(Cc2ccc(C(=O)NO)cc2)c2ccccc12` [Compound 1g], the “HDAC10 BRET pIC50” value at HDAC10 [1] (setting [3]) amounted to 7.80. The IC50 on HDAC10 [2] is 19.5 nM. For the molecule `O=C(NO)c1ccc(Cc2c[nH]c3ccc(C(=O)NO)cc23)cc1` [Compound 3d], the “loss of potency between the FRET and BRET HDAC10 assays” value at HDAC10 [1] (BRET weaker than FRET) is roughly 5 fold. The figures for the IC50 on HDAC10 [1] (setting [3]) and on HDAC10 [2] were 15.1 nM and 3.24 nM, respectively.

Regarding `CN(C)CCn1cc(Cc2ccc(C(=O)NO)cc2)c2cc(C(=O)NO)ccc21` [Compound 3e], the IC50 at HDAC10 [2] is 3.02 nM. Turning to `O=C(NO)c1ccc(Cn2ncc3ccc(C(=O)NO)cc32)cc1` [Compound 3f], the “increase in HDAC10 potency over the monohydroxamic acid 1f” value on HDAC10 [2] (FRET assay, 3f versus 1f) was roughly 70 factor. On HDAC10 [2], the IC50 is 3.39 nM. Regarding `CN(C)Cc1nn(Cc2ccc(C(=O)NO)cc2)c2cc(C(=O)NO)ccc12` [Compound 3g], the figures for the IC50 on HDAC10 [1] (setting [3]) and on HDAC10 [2] were 158 nM and 3.98 nM, respectively.

Take `CN(C)Cc1cn(Cc2ccc(C(=O)NO)cc2)c2cc(C(=O)NO)ccc12` [Compound 3b]: the IC50 at HDAC10 [2] is 2.82 nM. Regarding `O=C(NO)c1ccc(Cn2ccc3ccc(C(=O)NO)cc32)cc1` [Compound 3a], the IC50 on HDAC10 [2] is 2.57 nM. Turning to `CN1CCc2c(c3ccc(C(=O)NO)cc3n2Cc2ccc(C(=O)NO)cc2)C1` [Compound 3c], the IC50 on HDAC10 [2] was 12.3 nM.

Values taken from publication PMC7335359, “Design and Synthesis of Dihydroxamic Acids as HDAC6/8/10 Inhibitors” (Chemmedchem, 2020).
